What was measured:
Format in all cases: cell-based
[1] = system: Bel-7404 (human liver carcinoma); experiment: MTT antiproliferative/cytotoxicity assay, Bel-7404; settings: mean of three independent determinations
Protocol: (§1) Melting points were determined on an X4 apparatus (Beijing Tech Instrument Co. Ltd., Beijing, China) and were uncorrected. The ^1H and ^13C NMR spectra were recorded in CDCl3 on a Bruker AV-600 spectrometer at working frequencies of 600 and 150 MHz and a Bruker AV-300 spectrometer at working frequencies of 300 and 75 MHz, respectively. Chemical shifts are expressed in parts per million (δ) values and coupling constants (J) in Hertz. Infrared spectra were measured with a Thermo Scientific Nicolet IS-10 Spectrophotometer (Thermo Scientific, USA). HREIMS was measured on an Agilent 6210 TOFMS instrument (Agilent Technologies, USA). The cell proliferation assay was undertaken by a MTT method using 96-well plates on a […] MK3 analysis spectrometer (Thermo Scientific, Shanghai, China).
(§2) The detailed procedure had been reported in our previous work.

[2] = MTT cytotoxicity assay, 293T normal cells; settings: human, HEK-293T normal kidney epithelial cells, mean of three independent determinations
Protocol: as §1, §2

[3] = system: HeLa (human cervical carcinoma); experiment: MTT antiproliferative/cytotoxicity assay, HeLa; settings: mean of three independent determinations
Protocol: as §1, §2

In the case of CC(=O)Oc1ccc2c(c1)CCC1C2CCC2(C)C(=NNC(N)=S)CCC12 (centres unmarked) [Compound 2], the IC50 [1] is reported as greater than 200 µM, the IC50 [2] is reported as greater than 200 µM and the IC50 [3] is reported as 42 µM.

CC12CCC3c4ccc(O)cc4CCC3C1CCC2=NNC(N)=S (centres unmarked) [Compound 1] gave an IC50 [1] of 19 µM and an IC50 [3] of 34 µM.

— PMC5664251, “Synthesis and Cytotoxic Evaluation of Steroidal Copper (Cu (II)) Complexes” (Bioinorganic Chemistry and Applications, 2017)
